The values that follow come from US7868007B2, “Triazolopyridine carboxamide derivatives, preparation thereof and therapeutic use thereof” (sanofi-aventis, priority 2007, dated 2011).

The melting point is the temperature, or range, at which the solid turns liquid.

The target of data set [1] is T1, MGL (monoacyl glycerol lipase) enzyme (Mus musculus, UniProt O35678).
T1 construct: the source of MGL enzyme is a homogenate of mouse brain from which the cerebellum and the medulla oblongata have been removed; from tissue; host or cells: mouse brain homogenate (cerebellum and medulla oblongata removed)
T1 sequence (O35678 1-303): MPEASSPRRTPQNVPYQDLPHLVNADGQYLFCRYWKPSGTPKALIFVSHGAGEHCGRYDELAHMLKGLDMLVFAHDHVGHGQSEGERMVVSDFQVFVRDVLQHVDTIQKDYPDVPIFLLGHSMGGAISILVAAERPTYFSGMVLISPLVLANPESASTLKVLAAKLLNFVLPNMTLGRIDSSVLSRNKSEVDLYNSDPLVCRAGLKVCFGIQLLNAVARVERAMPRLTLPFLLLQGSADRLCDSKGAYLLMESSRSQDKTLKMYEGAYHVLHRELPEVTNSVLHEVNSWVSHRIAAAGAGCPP
Put plainly: radioenzymatic assay of MGL inhibition (hydrolysis of [3H] 2-OG by mouse brain homogenate). Format: biochemical. Particulars: 50 μM 2-OG with [3H] 2-OG, 20 minutes preincubation, 20 minutes incubation at ambient temperature, read-out: IC50 (concentration which inhibits 50% of the control enzymatic activity of MGL). Here is the method:
The inhibitory activity with respect to MGL is given by the concentration which inhibits 50% of the activity of MGL.
The inhibitory activity was measured in a radioenzymatic assay based on measuring the product of hydrolysis of 2-oleoyl glycerol ([^3H] 2-OG) by MGL. The products of hydrolysis of [^3H] 2-OG, labeled on the glycerol, are oleic acid and [^3H]glycerol, and the source of MGL enzyme is a homogenate of mouse brain from which the cerebellum and the medulla oblongata have been removed. The mouse brains are removed, and stored at −80° C. until they are used or homogenized immediately for twice 5 seconds using a Precellys apparatus at 5000 rpm (Bertin) in a 10 mM tris-HCl, 150 mM NaCl, 1 mM EDTA buffer (pH 8) at 4° C. The concentration of the homogenates is then adjusted to 7.5 μg/μl.
The dilution series of the compounds is prepared from stock solutions at 20 mM in 100% DMSO. […]
Assaying of the MGL activity is carried out in a 96-well microplate in a final reaction volume of 100 μl. […] After stirring for 10 minutes, the microplate is centrifuged for 15 minutes at 4000 g and a 30 μl aliquot of the aqueous phase containing the [^3H]glycerol produced is removed and then counted for 5 minutes by liquid scintillation (Wallac 1450 Microbeta).

In the case of `O=C(N1CCN(C(c2ccc(F)cc2)c2ccc(F)cc2)CC1)n1nnc2ncccc21` [Compound 3, {4-[Bis(4-fluorophenyl)methyl]piperazin-1-yl}[1,2,3]triazolo[4,5-b]pyridin-1-ylmethanone], the melting point was 151 to 153 °C (dec.). Consider `O=C(N1CCN(C(c2ccc(Cl)cc2)c2ccc(Cl)cc2)CC1)n1nnc2ncccc21` [Compound 4, {4-[Bis(4-chlorophenyl)methyl]piperazin-1-yl}[1,2,3]triazolo[4,5-b]pyridin-1-ylmethanone], for which the melting point was 163 to 165 °C (dec.). Take `O=C(N1CCN(C2c3ccccc3-c3ccccc32)CC1)n1nnc2ncccc21` [Compound 8, [4-(9H-Fluoren-9-yl)piperazin-1-yl][1,2,3]triazolo[4,5-b]pyridin-1-ylmethanone]: the melting point is 170 to 172 °C (dec.). On to `O=C(N1CCN(C(c2ccc(F)cc2)c2ccc(F)cc2)CC1)n1nnc2ncc(Cl)cc21` [Compound 5, {4-[Bis(4-fluorophenyl)methyl]piperazin-1-yl}(6-chloro[1,2,3]triazolo[4,5-b]pyridin-1-yl)-methanone], for which the melting point was 167 to 169 °C (dec.).

Turning to `O=C(N1CCN(C(c2ccccc2)c2ccccc2)CC1)n1nnc2ncccc21` [Compound 1, (4-Benzhydrylpiperazin-1-yl)[1,2,3]triazolo[4,5-b]pyridin-1-ylmethanone], the melting point is 146 to 148 °C (dec.). The IC50 in data set [1] was found to be 4 nM.

Take `O=C(N1CCN(C(c2ccccc2)c2ccccc2)CC1)n1nnc2ncc(Cl)cc21` [Compound 2, (4-Benzhydrylpiperazin-1-yl)(6-chloro[1,2,3]triazolo[4,5-b]pyridin-1-yl)methanone]: the melting point is 173 to 175 °C (dec.).

On to `O=C(N1CCN(C2c3ccccc3CCc3ccccc32)CC1)n1nnc2ncccc21` [Compound 7, [4-(10,11-Dihydro-5H-dibenzo[a,d]cyclohepten-5-yl)piperazin-1-yl][1,2,3]triazolo[4,5-b]-pyridin-1-ylmethanone], for which the melting point was 190 to 194 °C (dec.). Besides, in data set [1], the IC50 worked out at 25 nM.
